Results as given in patent US20200046737A1, “METHODS FOR TREATING CANCER, AND COMPOSITIONS THEREFOR” (Notable Labs, Inc., priority 2018, published 2020).

Columns and labels:
CD15 = experiment: Ex vivo flow cytometry priming assay, CD15 surface marker expression on AML patient samples; assay type: cell-based, human; details: FIG. 3, three-day incubation
PD-L1 = experiment: Ex vivo flow cytometry priming-tuning assay, PD-L1 expression on AML patient samples; assay type: cell-based, human; details: FIG. 3, three-day incubation
CD38 [1] = experiment: 72-hour ex vivo assay, CD38 upregulation in MDS and AML cancer patient samples; assay type: cell-based, human; details: subset of MDS and AML cancer patient samples
Description: (§1) The ex vivo detection of CD38 upregulation using the 72-hour ex vivo assay was clinically validated by trial sites, which compared CD38 expression on leukemic blasts before enrollment and at the beginning of cycle two on SY-1425.

CD38 [2] = experiment: Clinical validation by trial sites, CD38 expression on leukemic blasts of patients on drug; assay type: in vivo, human; details: before enrollment versus beginning of cycle two
Description: as §1

CD126 = experiment: Ex vivo flow cytometry priming assay, CD126 surface marker expression on AML patient samples; assay type: cell-based, human; details: AML Patient 3
Method: (§2) 12 primary AML patient samples were assayed for priming response using a High-Throughput Phenotypic Screening Platform. Samples were treated with 70 priming compounds (either FDA approved compounds or compounds in clinical development). […] This process was repeated on bone marrow aspirate and peripheral blood from 3 healthy donors.

CD24 = experiment: Ex vivo flow cytometry priming assay, CD24 surface marker expression on AML patient samples; assay type: cell-based, human; details: AML Patient 3
Method: as §2

In the case of `Cc1c(-c2ccc(-c3ccccc3F)cc2)nc2ccc(F)cc2c1C(=O)O` [Brequinar Sodium], the CD15 expression (CD15) is reported as “increase” and the PD-L1 expression (PD-L1) is reported as “increase”.
`CC1(C)CCC(C)(C)c2cc(NC(=O)c3ccc(C(=O)O)cc3)ccc21` [SY-1425] was tested, and the “CD38 upregulation after exposure” value (CD38 [1]) was “upregulation” and the “CD38 expression on leukemic blasts” value (CD38 [2]) was “upregulated”.
In the case of `CC1=C(/C=C/C(C)=C/C=C/C(C)=C/C(=O)O)C(C)(C)CCC1` [Tretinoin], the “expression of CD126” value (CD126) is reported as “little effect” and the “expression of CD24” value (CD24) is reported as “little effect”.
